These compounds were tested on E. coli (ATCC 25922) (assay: Evaluation of antibacterial property against E. coli (absorbance at 600 nm)). Settings: injection amount of compound 0.01 g in 25 mL nutrient broth with E. coli ATCC 25922 at 3000 CFU/mL; 16 hours at 35° C.; absorbance at 600 nm vs pure culture medium.
Type: cell-based, Escherichia coli
Procedure: [formula] • in the equation, • As(Asample) represents absorbance of the culture medium containing the bacteriostatic substance at a wavelength of 600 nm, and • A0(Areference) represents absorbance of the pure culture medium without the bacteriostatic substance at a wavelength of 600 nm.
(1) Evaluation of Antibacterial Property Against E. coli
25 mL of a nutrient broth culture medium inoculated with E. coli (ATCC 25922) at 3000 CFU/mL was transferred to a 50 ml conical tube, and then the antibacterial compounds (bacteriostatic substances) prepared in Preparation Examples and Comparative Preparation Examples were injected in each amount described in Table 2 below, followed by sufficiently mixing. Thereafter, incubation was performed for 16 hours in a shaking incubator (Visiontech, VS-37SIF) maintained at 35° C.
The incubated solution was diluted to ⅕ using 1×PBS buffer solution, and absorbance at the wavelength of 600 nm was measured for the diluted solution using a UV-Vis Spectrophotometer (K Lab, Optizen POP). In addition, E. coli (ATCC 25922) was cultured in a pure culture medium without the antibacterial compound for 16 hours in a shaking incubator (VISION TECH, VS-37SIF) maintained at 35° C., which was prepared as a control, and absorbance at the wavelength of 600 nm was measured in the same manner as above.
Then, antibacterial rates (%) of E. coli (ATCC 25922) were calculated according to the following Equation 1, and the results are shown in Table 2 below.
[formula] • in the equation, • As(Asample) represents absorbance of the culture medium containing the bacteriostatic substance at a wavelength of 600 nm, and • A0(Areference) represents absorbance of the E. coli pure culture medium without the bacteriostatic substance at a wavelength of 600 nm.
For C=C(C)C(=O)OCC[N+](C)(C)CCCCCCCCCC [Compound 1], the “Antibacterial rate (%)” value was 95.3%. With C=CC(=O)OCC[N+](C)(C)CCCCCCCCCCCC [Compound 3] the “Antibacterial rate (%)” value was 97.3%. With C=CC(=O)OCC[N+](C)(C)CCCCCCCC [Compound 6] the “Antibacterial rate (%)” value was 70.6%. With C=C(C)C(=O)OCC[N+](C)(C)CCCCCCCC [Compound B, reference compound] the “Antibacterial rate (%)” value was 69.2%. In the case of C=C(C)C(=O)OCC[N+](C)(C)CCCCCCCCCCCC [Compound 2], the “Antibacterial rate (%)” value is reported as 98.1%. C=CC(=O)OCC[N+](C)(C)CCCCCCCCCC [Compound 5] was tested, and the “Antibacterial rate (%)” value was 95.8%. In the case of C=CC(=O)OCC[N+](C)(C)CCCCCCCC [Compound E, reference compound], the “Antibacterial rate (%)” value is reported as 62.3%.
